How the values were obtained:
[1] = Solvency of solvents for (S)-Equol (visual solubility after storage); conditions: solute (S)-Equol, 6% test solution, approximately 1:16 solute to solvent ratio, soluble = no visible crystals
Protocol: (§1) In the testing provided below, “soluble” (or “solubilize”), in relation to the solubility of a solid solute being tested, means that no visible crystals may be seen after a prescribed storage period at a storage condition. The storage period can vary. Suitable storage periods include about 24 hours, about 1 week, and about 30 days. Suitable storage conditions include ambient conditions or cold storage at 5° C. (approximately 1 atm). In certain embodiments, solubility may be determined after a 24 hour storage period at ambient conditions. In other embodiments, solubility may be determined after 20 days in cold storage. Other testing parameters may include storage for prolonged time periods (e.g., 30 day, 50 days, 60 days, 90 days) and at variable temperatures (e.g., 5° C., 50° C.).
(§2) The solvency of an isosorbide diester within the scope of the present invention was tested against two conventional, industry standard solvents. […] A test solution was of 6% Equol is prepared with heating to 70° C. Upon reaching 70° C., the examples may be mixed for about 10 minutes. Place mixtures in a covered vial and cool to the storage temperature. Solubility is evaluated for samples stored 24 hours at ambient conditions. Solubility is also evaluated for samples stored for 7 day at 5° C. followed by equilibration to ambient conditions.

[2] = Solvency of solvents for tetrahydrocurcuminoids (THC) (visual solubility after storage); conditions: solute tetrahydrocurcuminoids (THC), 3% test solution, approximately 1:32 solute to solvent ratio, soluble = no visible crystals
[3] = Solvency of solvents for hexylresorcinol (visual solubility after storage); conditions: solute hexylresorcinol, 33.5% test solution, approximately 1:2 solute to solvent ratio, soluble = no visible crystals
Protocol: as §1
as §2, with “solution” for “solution was”, “33.5% hexylresorcinol” for “6% Equol”

[4] = then equilibration to ambient conditions

CCCCCCCCCCCC(=O)N(C)CC(=O)OC(C)C [Isopropyl lauroyl sarcosinate, isopropyl lauroyl sarcosinate]
Soluble: Solubility, 24 hour rest at Ambient Conditions ([1]; prepared at 70° C.) | Solubility, 7 day storage at 5° C. [1, 4] | Solubility, 24 hour rest at Ambient Conditions ([2]; prepared at 70° C.) | Solubility, 7 day storage at 5° C. [2, 4] | Solubility, 24 hour rest at Ambient Conditions ([3]; prepared at 70° C.) | Solubility, 7 day storage at 5° C. [3, 4]

Reference: US20130011347A1, “Personal Care Compositions With Improved Solubility of a Solid Cosmetic Active” (priority 2011, published 2013)
